Results taken from ChEMBL document CHEMBL1201862, “PubChem BioAssay data set” (2004).
Active and inactive are the calls of the source.

Columns and labels:
[1] = molecular target: Beta-galactosidase (Escherichia coli, UniProt Q8VNN2); assay: Dose response counterscreen for EBI2 assay utilizing the enzyme, b-galactosidase.; format: functional
[2] = molecular target: Photoreceptor-specific nuclear receptor (Homo sapiens, UniProt Q9Y5X4); format: functional, cell-based;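 also: CHO-S cells with Gal4-NCOR and VP16-NR2E3 two-hybrid luciferase reporter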
[3] = HeLa cell cytotoxicity, dose response, cytotoxicity control for MgcRacGAP inhibitor project (AID 624300); format: functional
[4] = molecular target: T1, DNA repair protein RAD52 homolog (Homo sapiens, UniProt P43351); format: functional, biochemical
T1 sequence (P43351 whole entry): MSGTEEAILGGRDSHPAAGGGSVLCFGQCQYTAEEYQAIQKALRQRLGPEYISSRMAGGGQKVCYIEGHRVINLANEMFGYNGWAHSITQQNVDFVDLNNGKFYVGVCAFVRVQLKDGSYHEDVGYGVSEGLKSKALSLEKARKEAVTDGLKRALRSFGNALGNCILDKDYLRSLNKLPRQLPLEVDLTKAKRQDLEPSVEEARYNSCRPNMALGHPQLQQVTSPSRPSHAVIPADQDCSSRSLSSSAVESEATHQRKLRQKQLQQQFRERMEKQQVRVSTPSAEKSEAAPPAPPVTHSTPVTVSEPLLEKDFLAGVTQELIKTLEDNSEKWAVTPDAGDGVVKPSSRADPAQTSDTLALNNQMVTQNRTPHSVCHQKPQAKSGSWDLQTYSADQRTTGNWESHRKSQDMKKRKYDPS

[5] = human group III sPLA2 inhibitors, dose response, biochemical, QFRET, IC50 (AID 743457);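 also: green fluorescence rise as the enzyme cleaves BODIPY PC-A2 in liposomes; potency for inhibition of the enzyme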
[6] = molecular target: Nonstructural protein 1 (Influenza A virus, UniProt Q194T2); format: functional, Influenza A virus (A/California/07/2009(H1N1))
[7] = molecular target: T2, Rac GTPase-activating protein 1 (Homo sapiens, UniProt Q9H0H5); assay: MgcRacGAP GTPase-activating activity inhibitors, confirmation, biochemical, ADP Hunter fluorescence, primary and confirmatory (AID 624330); format: functional
T2 sequence (Q9H0H5 whole entry): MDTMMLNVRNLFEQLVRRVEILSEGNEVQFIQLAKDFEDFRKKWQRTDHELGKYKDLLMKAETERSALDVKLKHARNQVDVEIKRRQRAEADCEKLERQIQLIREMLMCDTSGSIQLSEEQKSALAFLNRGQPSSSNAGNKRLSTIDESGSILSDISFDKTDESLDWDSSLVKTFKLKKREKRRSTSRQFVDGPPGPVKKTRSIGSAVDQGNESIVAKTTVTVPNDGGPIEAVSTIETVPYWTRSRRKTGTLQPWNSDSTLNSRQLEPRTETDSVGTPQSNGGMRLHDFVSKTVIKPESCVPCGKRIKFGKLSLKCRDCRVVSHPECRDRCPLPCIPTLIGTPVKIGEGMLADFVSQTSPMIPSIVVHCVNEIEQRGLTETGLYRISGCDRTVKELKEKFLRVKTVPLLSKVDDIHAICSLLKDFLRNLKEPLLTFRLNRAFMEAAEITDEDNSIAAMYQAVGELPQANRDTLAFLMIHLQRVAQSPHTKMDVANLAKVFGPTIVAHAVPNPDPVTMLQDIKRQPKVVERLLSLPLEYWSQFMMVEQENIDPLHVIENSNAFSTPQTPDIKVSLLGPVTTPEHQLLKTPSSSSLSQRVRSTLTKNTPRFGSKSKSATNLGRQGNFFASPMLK

[8] = cells; conditions: A549
[9] = cytotoxicity in OVCAR8 ovarian cancer cells, dose response, PAX8 project, cell-based, plate reader, dry powder samples (AID 743197); format: functional; conditions: OVCAR-8
[10] = NIH:OVCAR-3 ovarian cancer cell cytotoxicity, dose response, PAX8 inhibitor project, plate reader, dry powder samples (AID 743044); format: functional, cell-based
[11] = molecular target: Paired box protein Pax-8 (Homo sapiens, UniProt Q06710); assay: inhibitors of PAX8-driven TPO luciferase reporter, dose response, RMG-I cells, cherry-pick (AID 687027); format: functional, cell-based;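 also: luciferase reporter driven by Pax8 target thyroperoxidase promoter measured by SteadyGlo luminescence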
[12] = inhibitors of CMV-promoter luciferase reporter, dose response, counter-screen for Pax8 inhibitor project, cell-based, HEK293, luminescence, dry powder (AID 743020); format: functional
[13] = cytotoxicity in HeLa cells, dose response, cytotoxicity control, cell-based, plate reader, dry powder (AID 651946); format: functional
[14] = LGR2 antagonists, dose response, cell-based, HEK293, CRE-luciferase reporter, cherry pick (AID 743342); format: functional
[15] = A549 cell cytotoxicity, dose response, cytotoxicity control, plate reader, cherry-pick, antagonist series (AID 743412); format: functional, cell-based
[16] = MITF: Counter assay: A375 proliferation Measured in Cell-Based System Using Plate Reader - 2084-03_Inhibitor_Dose_DryPowder_Activity_Set8.; format: functional; conditions: A-375
[17] = TRPM1 promoter luciferase reporter signal decrease, dose response, MITF inhibitor project, cell-based, SK-MEL-5, dry powder, set 8 (AID 624430); format: functional
[18] = MITF Orthogonal Assay: SK-MEL-5 CTG Assay Measured in Cell-Based System Using Plate Reader - 2084-02_Inhibitor_Dose_DryPowder_Activity_Set7.; format: functional
[19] = cytotoxicity in OV-90 ovarian cancer cells, dose response, PAX8 inhibitor project, cell-based, plate reader, dry powder, SA8 (AID 743149); format: functional
[20] = IGROV1 ovarian cancer cell cytotoxicity, dose response, PAX8 inhibitor project, plate reader, dry powder samples (AID 743043); format: functional, cell-based; conditions: IGROV-1
[21] = cytotoxicity in COV434 cells, dose response, cytotoxicity control for PAX8 inhibitor project, cell-based, plate reader, dry powder, SA7 (AID 743145); format: functional
[22] = cytotoxicity dependent on PAX8, dose response, cell-based, plate reader, dry powder (AID 743049); format: functional
[23] = T. cruzi growth inhibition in host cells, dose response, cell-based, plate reader, dry powder, set 2 (AID 652275); format: functional
[24] = BHK-21 cell cytotoxicity, cytotoxicity control for flavivirus guanylyltransferase probe project, secondary screen (AID 624078); format: functional
[25] = molecular target: Protein disulfide-isomerase (Homo sapiens, UniProt P07237); assay: PDI inhibitors, insulin turbidity readout, confirmation, biochemical, dry powder samples, set 2 (AID 652146)
Protein disulfide-isomerase, sequence (P07237 whole entry): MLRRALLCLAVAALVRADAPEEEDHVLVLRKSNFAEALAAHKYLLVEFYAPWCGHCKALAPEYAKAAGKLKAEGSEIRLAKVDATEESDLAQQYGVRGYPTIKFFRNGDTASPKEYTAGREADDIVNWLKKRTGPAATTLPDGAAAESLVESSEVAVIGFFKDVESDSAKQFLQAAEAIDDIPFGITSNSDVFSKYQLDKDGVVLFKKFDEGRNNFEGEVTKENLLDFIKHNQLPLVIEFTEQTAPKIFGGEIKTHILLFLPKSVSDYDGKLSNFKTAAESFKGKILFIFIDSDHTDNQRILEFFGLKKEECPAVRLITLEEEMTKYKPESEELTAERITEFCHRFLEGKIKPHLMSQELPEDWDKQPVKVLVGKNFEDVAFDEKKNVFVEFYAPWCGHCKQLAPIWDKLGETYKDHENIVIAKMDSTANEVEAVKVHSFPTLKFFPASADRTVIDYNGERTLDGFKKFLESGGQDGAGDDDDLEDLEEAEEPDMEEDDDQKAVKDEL

Photoreceptor-specific nuclear receptor, sequence (Q9Y5X4 whole entry, the tested form may be a part): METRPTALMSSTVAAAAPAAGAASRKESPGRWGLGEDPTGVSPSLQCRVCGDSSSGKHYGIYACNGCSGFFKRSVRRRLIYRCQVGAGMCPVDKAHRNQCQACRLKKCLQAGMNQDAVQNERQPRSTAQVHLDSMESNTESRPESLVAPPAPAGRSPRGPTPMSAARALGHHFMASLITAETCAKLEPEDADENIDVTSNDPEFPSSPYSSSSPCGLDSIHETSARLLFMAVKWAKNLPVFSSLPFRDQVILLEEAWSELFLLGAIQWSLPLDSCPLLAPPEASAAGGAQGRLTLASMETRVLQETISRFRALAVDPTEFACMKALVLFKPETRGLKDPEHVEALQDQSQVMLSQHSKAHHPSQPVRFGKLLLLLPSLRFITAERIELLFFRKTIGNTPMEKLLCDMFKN
Nonstructural protein 1, sequence (Q194T2 whole entry): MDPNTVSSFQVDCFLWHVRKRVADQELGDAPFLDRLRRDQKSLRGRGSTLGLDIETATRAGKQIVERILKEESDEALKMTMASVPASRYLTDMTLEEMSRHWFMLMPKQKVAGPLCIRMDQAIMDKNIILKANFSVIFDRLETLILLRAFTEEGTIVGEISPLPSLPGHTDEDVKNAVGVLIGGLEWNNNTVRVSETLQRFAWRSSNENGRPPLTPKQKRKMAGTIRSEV
Beta-galactosidase, sequence (Q8VNN2 whole entry, the tested form may be a part): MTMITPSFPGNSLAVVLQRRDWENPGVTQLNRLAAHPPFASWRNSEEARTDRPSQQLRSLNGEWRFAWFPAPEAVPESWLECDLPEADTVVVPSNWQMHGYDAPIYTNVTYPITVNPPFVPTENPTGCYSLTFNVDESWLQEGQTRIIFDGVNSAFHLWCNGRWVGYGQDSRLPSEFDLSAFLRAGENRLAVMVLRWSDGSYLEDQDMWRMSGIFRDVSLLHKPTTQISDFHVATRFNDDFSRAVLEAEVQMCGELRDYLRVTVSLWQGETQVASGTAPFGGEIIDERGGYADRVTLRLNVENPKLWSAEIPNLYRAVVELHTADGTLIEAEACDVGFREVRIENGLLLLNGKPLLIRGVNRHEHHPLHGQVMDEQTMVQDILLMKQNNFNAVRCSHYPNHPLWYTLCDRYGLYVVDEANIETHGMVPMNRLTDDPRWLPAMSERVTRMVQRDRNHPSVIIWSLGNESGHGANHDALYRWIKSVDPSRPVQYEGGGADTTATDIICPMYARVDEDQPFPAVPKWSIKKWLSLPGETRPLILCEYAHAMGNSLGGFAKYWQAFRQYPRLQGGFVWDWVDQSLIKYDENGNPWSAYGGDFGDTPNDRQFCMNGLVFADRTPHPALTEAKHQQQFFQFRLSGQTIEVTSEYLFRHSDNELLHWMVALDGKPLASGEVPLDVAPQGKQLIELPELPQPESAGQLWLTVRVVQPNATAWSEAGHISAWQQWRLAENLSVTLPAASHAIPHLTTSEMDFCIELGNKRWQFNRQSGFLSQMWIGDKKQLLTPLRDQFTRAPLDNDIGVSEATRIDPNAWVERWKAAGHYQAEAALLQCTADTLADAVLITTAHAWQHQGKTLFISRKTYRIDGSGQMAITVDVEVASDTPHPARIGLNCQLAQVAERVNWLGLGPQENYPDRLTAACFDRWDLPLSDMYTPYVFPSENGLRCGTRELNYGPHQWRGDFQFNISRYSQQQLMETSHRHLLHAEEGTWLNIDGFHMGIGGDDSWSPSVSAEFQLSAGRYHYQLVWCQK
Paired box protein Pax-8, sequence (Q06710 whole entry): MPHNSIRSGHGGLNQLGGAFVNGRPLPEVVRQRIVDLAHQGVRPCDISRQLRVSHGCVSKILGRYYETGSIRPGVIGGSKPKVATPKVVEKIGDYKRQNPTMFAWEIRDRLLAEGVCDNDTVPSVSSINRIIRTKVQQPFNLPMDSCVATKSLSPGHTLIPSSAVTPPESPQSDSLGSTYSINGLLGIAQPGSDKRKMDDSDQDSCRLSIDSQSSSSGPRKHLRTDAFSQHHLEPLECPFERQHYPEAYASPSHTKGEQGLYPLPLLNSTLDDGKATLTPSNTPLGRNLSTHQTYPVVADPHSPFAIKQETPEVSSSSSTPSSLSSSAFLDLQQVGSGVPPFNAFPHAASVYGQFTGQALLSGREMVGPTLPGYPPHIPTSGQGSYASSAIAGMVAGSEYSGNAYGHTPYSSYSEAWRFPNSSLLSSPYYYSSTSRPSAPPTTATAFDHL

CCOC(=O)C1CCN(C2=NC(=O)/C(=C/c3ccc(Cl)cc3)S2)CC1
IC50 [1]: > 80 µM (inactive)

CN(C)c1ccc(/C=C/c2cc[n+](C)c3ccccc23)cc1
IC50 [2]: 7.07 µM (active)
CC50 [3]: 54.1 µM (active)
AC50 [4]: 1.23 µM (active)
IC50 [5]: 30.1 µM (inactive)
IC50 [6]: 10.6 µM (active)
IC50 [7]: 38.5 µM (active)

CC(=O)c1cccc(-c2ccnc3c2CC(C(=O)NCc2ccc(F)c(F)c2)O3)c1 (stereo unspecified)
AC50 [8]: 3.92 µM (active)

C[C@H]1CN([C@@H](C)CO)S(=O)(=O)c2ccc(C#CC3CCCC3)cc2O[C@@H]1CN(C)Cc1cccnc1
AC50 [9]: > 70 µM (inactive)
AC50 [10]: 37.1 µM (active)
AC50 [11]: 14.4 µM (active)
AC50 [12]: 39.4 µM (active)

N#Cc1cccc(CSc2nnc(-c3ccccc3)o2)c1
AC50 [13]: > 52 µM (inactive)

C[C@H](CO)N1C[C@H](C)[C@H](CN(C)C(=O)Nc2ccc3c(c2)OCO3)OCCCC[C@H](C)Oc2ccc(NC(=O)C3CCCCC3)cc2C1=O
AC50 [14]: 2.21 µM (active)
AC50 [15]: 41 µM (active)

Cc1cccc(NC2=CC(=O)c3ccccc3C2=O)c1
AC50 [16]: > 70 µM (inactive)
AC50 [17]: 18.9 µM (active)
AC50 [18]: 0.66 µM (active)

N#C[C@H]1N[C@H](CO)[C@@H]1c1ccc(C#Cc2ccccc2F)cc1
AC50 [19]: > 70 µM (inactive)
AC50 [20]: 45.2 µM (active)
AC50 [21]: > 70 µM (inactive)
AC50 [10]: 49.8 µM (active)
AC50 [22]: 30.1 µM (active)

C[C@@H](CO)N1CC[C@H](CNCc2ccc(Oc3ccccc3)cc2)Oc2c(NC(=O)c3ccncc3)cccc2C1=O
AC50 [23]: 0.0179 µM (active)

O=S(=O)(Nc1cc(Cl)c(O)c2ccccc12)c1ccc(F)cc1
CC50 [24]: 12.5 µM (active)

CCOC(=O)C1(CCOc2ccccc2)CCN(Cc2ccc3[nH]c(=O)oc3c2)CC1
AC50 [25]: > 30 µM (inactive)
